Assay results as given in US12624044B2, “SMARCA degraders and uses thereof” (Kymera Therapeutics, Inc., priority 2019, dated 2026).

Molecular target: SMARCA2 (Homo sapiens, UniProt P51531)
Test: MSD SMARCA2 degradation in NCI-H1299 cell line (24 h)
Type: cell-based
Design: HC: NCI-H1299 cells treated with DMSO; host or cells: NCI-H1299
Conditions: for Dmax: NCI-H1299, NCI-H1299 cells; for DC50: NCI-H1299 cells, read-out: SMARCA2 MSD H1299 degradation 24 h: External Abs-DC50
Procedure, shortened: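 NCI-H1299 cells treated 24 h with a 3-fold, 9-point compound dilution series, then lysed in RIPA with protease inhibitor. SMARCA2 in lysate-coated MSD plates detected with rabbit anti-SMARCA2 (0.3 ug/ml) and SULFO-TAG secondary. Relative SMARCA2 level normalized between DMSO-treated H1299 cells and SMARCA2-negative A2780 cells; Dmax % binned A–D.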

Chain of SMARCA2 (P51531 whole entry): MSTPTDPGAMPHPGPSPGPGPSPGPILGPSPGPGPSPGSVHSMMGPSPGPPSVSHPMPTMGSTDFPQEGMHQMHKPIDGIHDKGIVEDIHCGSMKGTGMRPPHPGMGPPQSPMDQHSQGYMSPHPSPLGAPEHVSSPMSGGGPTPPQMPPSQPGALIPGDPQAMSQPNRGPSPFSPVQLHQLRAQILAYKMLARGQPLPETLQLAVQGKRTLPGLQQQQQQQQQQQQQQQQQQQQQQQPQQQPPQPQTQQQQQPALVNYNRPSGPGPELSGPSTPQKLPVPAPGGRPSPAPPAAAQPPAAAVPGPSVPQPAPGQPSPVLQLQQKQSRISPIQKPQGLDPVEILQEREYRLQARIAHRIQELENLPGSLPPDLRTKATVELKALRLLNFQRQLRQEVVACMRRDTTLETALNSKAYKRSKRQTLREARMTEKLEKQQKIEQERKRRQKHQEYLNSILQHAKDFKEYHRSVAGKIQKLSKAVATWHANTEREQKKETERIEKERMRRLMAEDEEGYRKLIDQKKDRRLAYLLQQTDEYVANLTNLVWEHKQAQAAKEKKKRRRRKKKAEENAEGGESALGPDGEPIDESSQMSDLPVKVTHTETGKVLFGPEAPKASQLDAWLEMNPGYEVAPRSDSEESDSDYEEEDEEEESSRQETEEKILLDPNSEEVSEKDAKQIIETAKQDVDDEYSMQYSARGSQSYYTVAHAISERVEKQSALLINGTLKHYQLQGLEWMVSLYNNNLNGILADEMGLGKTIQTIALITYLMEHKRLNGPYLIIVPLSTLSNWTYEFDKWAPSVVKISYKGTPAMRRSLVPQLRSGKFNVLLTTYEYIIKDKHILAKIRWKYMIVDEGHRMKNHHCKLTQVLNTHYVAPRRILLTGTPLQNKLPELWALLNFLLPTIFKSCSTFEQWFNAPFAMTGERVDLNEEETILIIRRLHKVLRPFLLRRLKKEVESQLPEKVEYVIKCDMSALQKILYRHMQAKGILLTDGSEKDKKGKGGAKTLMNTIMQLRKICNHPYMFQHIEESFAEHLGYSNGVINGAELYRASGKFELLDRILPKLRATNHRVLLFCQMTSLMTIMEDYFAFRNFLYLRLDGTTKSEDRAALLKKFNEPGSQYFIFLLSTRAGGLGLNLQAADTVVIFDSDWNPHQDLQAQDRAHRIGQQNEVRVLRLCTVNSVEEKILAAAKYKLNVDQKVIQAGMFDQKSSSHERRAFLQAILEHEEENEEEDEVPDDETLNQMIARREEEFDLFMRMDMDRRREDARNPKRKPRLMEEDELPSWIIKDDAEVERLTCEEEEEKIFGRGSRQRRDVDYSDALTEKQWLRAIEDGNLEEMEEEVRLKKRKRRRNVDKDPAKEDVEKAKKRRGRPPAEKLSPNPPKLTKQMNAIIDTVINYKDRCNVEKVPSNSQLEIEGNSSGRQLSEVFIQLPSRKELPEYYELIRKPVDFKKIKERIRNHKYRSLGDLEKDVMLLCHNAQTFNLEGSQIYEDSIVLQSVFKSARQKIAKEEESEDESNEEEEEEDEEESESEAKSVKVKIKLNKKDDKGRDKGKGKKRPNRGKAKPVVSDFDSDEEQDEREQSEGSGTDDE

SMILES | Dmax | DC50
Cn1c(=O)n(C2CCC(=O)NC2=O)c2cccc(CCCOC3CCN(Cc4ccc(N5CCN(c6cc(-c7ccccc7O)nnc6N)CC5)cc4)CC3)c21 (stereo not shown) [I-115] | 70 to 90% | 100 to 500 nM
Nc1nnc(-c2ccccc2O)cc1N1CCN(c2ccc(CNCCOCCCc3cccc4c3oc(=O)n4C3CCC(=O)NC3=O)cc2)CC1 (stereo not shown) [I-116] | 50 to 70% | 501 to 1000 nM
CN(Cc1ccc(N2CCN(c3cc(-c4ccccc4O)nnc3N)CC2)cc1)C[C@@H]1CN(CCCc2cccc3c2n(C)c(=O)n3C2CCC(=O)NC2=O)CCO1 (stereo partly shown) [I-117] | 70 to 90% | 100 to 500 nM
Cn1c(=O)n(C2CCC(=O)NC2=O)c2cccc(C#CCN3CCO[C@H](CNCc4ccc(N5CCN(c6cc(-c7ccccc7O)nnc6N)CC5)cc4)C3)c21 (stereo partly shown) [I-118] | < 50% | > 1000 nM
CN(CCCCOCCCCc1cccc2c1n(C)c(=O)n2C1CCC(=O)NC1=O)Cc1ccc(N2CCN(c3cc(-c4ccccc4O)nnc3N)CC2)cc1 (stereo not shown) [I-119] | 70 to 90% | 100 to 500 nM
Cn1c(=O)n(C2CCC(=O)NC2=O)c2ccc(CCCN3CCO[C@@H](CNCc4ccc(N5CCN(c6cc(-c7ccccc7O)nnc6N)CC5)cc4)C3)cc21 (stereo partly shown) [I-120] | 50 to 70% | 501 to 1000 nM
Cn1c(=O)n(C2CCC(=O)NC2=O)c2cccc(CCCO[C@H]3C[C@H](N(C)Cc4ccc(N5CCN(c6cc(-c7ccccc7O)nnc6N)CC5)cc4)C3)c21 (stereo partly shown) [I-121] | 70 to 90% | < 100 nM
CN(CCCCc1ccc2c(c1)n(C)c(=O)n2C1CCC(=O)NC1=O)Cc1ccc(N2CCN(c3cc(-c4ccccc4O)nnc3N)CC2)cc1 (stereo not shown) [I-122] | < 50% | > 1000 nM
CN(CCOCCOCCCc1ccc2c(c1)oc(=O)n2C1CCC(=O)NC1=O)Cc1ccc(N2CCN(c3cc(-c4ccccc4O)nnc3N)CC2)cc1 (stereo not shown) [I-123] | 70 to 90% | 100 to 500 nM
Cn1c(=O)n(C2CCC(=O)NC2=O)c2cccc(CCCOCC3CN(Cc4ccc(N5CCN(c6cc(-c7ccccc7O)nnc6N)CC5)cc4)C3)c21 (stereo not shown) [I-124] | 70 to 90% | 100 to 500 nM
CN(CCOCCCc1ccc2c(c1)n(C)c(=O)n2C1CCC(=O)NC1=O)Cc1ccc(N2CCN(c3cc(-c4ccccc4O)nnc3N)CC2)cc1 (stereo not shown) [I-125] | < 50% | > 1000 nM
Nc1nnc(-c2ccccc2O)cc1N1CCN(c2ccc(CNCCOCCOCCCc3ccc4c(c3)oc(=O)n4C3CCC(=O)NC3=O)cc2)CC1 (stereo not shown) [I-126] | > 90% | 100 to 500 nM
Nc1nnc(-c2ccccc2O)cc1N1CCN(c2ccc(CNCCCOCCCc3ccc4c(c3)oc(=O)n4C3CCC(=O)NC3=O)cc2)CC1 (stereo not shown) [I-127] | 50 to 70% | > 1000 nM
Cn1c(=O)n(C2CCC(=O)NC2=O)c2ccc(CCCCOCCCCNCc3ccc(N4CCN(c5cc(-c6ccccc6O)nnc5N)CC4)cc3)cc21 (stereo not shown) [I-128] | > 90% | < 100 nM
CC(C)(CCOCCCc1cccc2c1oc(=O)n2C1CCC(=O)NC1=O)NCc1ccc(N2CCN(c3cc(-c4ccccc4O)nnc3N)CC2)cc1 (stereo not shown) [I-129] | > 90% | > 1000 nM
Cn1c(=O)n(C2CCC(=O)NC2=O)c2ccc(CN3CCN(CCO[C@H]4C[C@H](NCc5ccc(N6CCN(c7cc(-c8ccccc8O)nnc7N)CC6)cc5)C4)CC3)cc21 (stereo partly shown) [I-131] | 70 to 90% | > 1000 nM
CN(Cc1ccc(N2CCN(c3cc(-c4ccccc4O)nnc3N)CC2)cc1)CC1CCN(Cc2cccc3c2n(C)c(=O)n3C2CCC(=O)NC2=O)CC1 (stereo not shown) [I-132, 3-(4-((4-(((4-(4-(3-amino-6-(2-hydroxyphenyl)pyridazin-4-yl)piperazin-1-yl)benzyl)(methyl)amino)methyl)piperidin-1-yl)methyl)-3-methyl-2-oxo-2,3-dihydro-1H-benzo[d]imidazol-1-yl)piperidine-2,6-dione] | > 90% | < 100 nM
Cn1c(=O)n(C2CCC(=O)NC2=O)c2cccc(CCCOCCOCCOCCOCCN3CCN(Cc4ccc(-c5cc(-c6ccccc6O)nnc5N)cc4)CC3)c21 (stereo not shown) [I-133] | < 50% | > 1000 nM

SMILES | Dmax | DC50
Cn1c(=O)n(C2CCC(=O)NC2=O)c2ccc(CCCOCCOCCOCCN3CCN(Cc4ccc(-c5cc(-c6ccccc6O)nnc5N)cc4)CC3)cc21 (stereo not shown) [I-134] | 50 to 70% | 100 to 500 nM
Cn1c(=O)n(C2CCC(=O)NC2=O)c2ccc(CCCOCCOCCN3CCN(Cc4ccc(-c5cc(-c6ccccc6O)nnc5N)cc4)CC3)cc21 (stereo not shown) [I-135] | 50 to 70% | 100 to 500 nM
Cn1c(=O)n(C2CCC(=O)NC2=O)c2ccc(CCCOCCCOCCN3CCN(Cc4ccc(-c5cc(-c6ccccc6O)nnc5N)cc4)CC3)cc21 (stereo not shown) [I-136] | 50 to 70% | 100 to 500 nM
Cn1c(=O)n(C2CCC(=O)NC2=O)c2ccc(C#CCOCCOCCN3CCN(Cc4ccc(-c5cc(-c6ccccc6O)nnc5N)cc4)CC3)cc21 (stereo not shown) [I-137] | < 50% | > 1000 nM
Cn1c(=O)n(C2CCC(=O)NC2=O)c2ccc(CCCOCCCCN3CCN(Cc4ccc(-c5cc(-c6ccccc6O)nnc5N)cc4)CC3)cc21 (stereo not shown) [I-138] | 50 to 70% | < 100 nM
Cn1c(=O)n(C2CCC(=O)NC2=O)c2ccc(CCCN3CCN(Cc4ccc(-c5cc(-c6ccccc6O)nnc5N)cc4)CC3)cc21 (stereo not shown) [I-139] | 50 to 70% | < 100 nM
Cn1c(=O)n(C2CCC(=O)NC2=O)c2cccc(CCCOCCCN3CCN(Cc4ccc(-c5cc(-c6ccccc6O)nnc5N)cc4)CC3)c21 (stereo not shown) [I-140] | 70 to 90% | < 100 nM
Cn1c(=O)n(C2CCC(=O)NC2=O)c2ccc(COCCCN3CCN(Cc4ccc(-c5cc(-c6ccccc6O)nnc5N)cc4)CC3)cc21 (stereo not shown) [I-141] | < 50% | 100 to 500 nM
Cn1c(=O)n(C2CCC(=O)NC2=O)c2ccc(CCCCCCCCOc3cccc(CN4CCN(c5cc(-c6ccccc6O)nnc5N)CC4)c3)cc21 (stereo not shown) [I-142] | < 50% | > 1000 nM
Cn1c(=O)n(C2CCC(=O)NC2=O)c2ccc(CCCCCCCCCOc3cccc(CN4CCN(c5cc(-c6ccccc6O)nnc5N)CC4)c3)cc21 (stereo not shown) [I-143] | < 50% | > 1000 nM
Cn1c(=O)n(C2CCC(=O)NC2=O)c2ccc(CCCCCCCCCCOc3cccc(CN4CCN(c5cc(-c6ccccc6O)nnc5N)CC4)c3)cc21 (stereo not shown) [I-144] | 50 to 70% | > 1000 nM
Cn1c(=O)n(C2CCC(=O)NC2=O)c2ccc(CCCCCCCCCCCOc3cccc(CN4CCN(c5cc(-c6ccccc6O)nnc5N)CC4)c3)cc21 (stereo not shown) [I-145] | < 50% | > 1000 nM
Cn1c(=O)n(C2CCC(=O)NC2=O)c2ccc(CCCCCCCN3CCC(Cn4cc(-c5cc(-c6ccccc6O)nnc5N)cn4)CC3)cc21 (stereo not shown) [I-146] | 70 to 90% | < 100 nM
Cn1c(=O)n(C2CCC(=O)NC2=O)c2ccc(CCCCCCCCN3CCC(Cn4cc(-c5cc(-c6ccccc6O)nnc5N)cn4)CC3)cc21 (stereo not shown) [I-147] | 70 to 90% | 100 to 500 nM
Cn1c(=O)n(C2CCC(=O)NC2=O)c2ccc(CCCCCCCCCN3CCC(Cn4cc(-c5cc(-c6ccccc6O)nnc5N)cn4)CC3)cc21 (stereo not shown) [I-148] | > 90% | < 100 nM
Cn1c(=O)n(C2CCC(=O)NC2=O)c2cccc(CCCCCCCN3CCC(Cn4cc(-c5cc(-c6ccccc6O)nnc5N)cn4)CC3)c21 (stereo not shown) [I-149, 3-[4-[7-[4-[[4-[3-amino-6-(2-hydroxyphenyl)pyridazin-4-yl]pyrazol-1-yl]methyl]-1-piperidyl]heptyl]-3-methyl-2-oxo-benzimidazol-1-yl]piperidine-2,6-dione] | > 90% | < 100 nM
Cn1c(=O)n(C2CCC(=O)NC2=O)c2cccc(CCCCCCCCN3CCC(Cn4cc(-c5cc(-c6ccccc6O)nnc5N)cn4)CC3)c21 (stereo not shown) [I-150] | > 90% | < 100 nM
